Test results reported in PubChem BioAssay AID1259407 (Chemical Carcinogenesis Research Information System (CCRIS), 2018).
Calls of active or inactive are those of the source. How the calls were made is not given here.

System: CCRIS mutagenicity, Ames/micronucleus/aberration tests
Assay: CCRIS mutagenicity studies

For `BrCCBr`, the mutagenic call (End Point: IN VITRO CHROMOSOMAL ABERRATIONS, Test System: CHL CELLS, Metabolic Activation: RAT, LIVER, S-9, SODIUM PHENOBARBITAL AND 5,6-BENZOFLAVONE) was “active; positive (structural changes)”, the mutagenic call (End Point: IN VITRO CHROMOSOMAL ABERRATIONS, Test System: CHO CELLS, Metabolic Activation: NONE) was “active; positive” and the mutagenic call (End Point: IN VITRO CHROMOSOMAL ABERRATIONS, Test System: CHO CELLS, Metabolic Activation: RAT, LIVER, S-9, AROCLOR 1254) was “active; positive”. The mutagenic call (Test System: AMES SALMONELLA TYPHIMURIUM, Strain/Indicator: TA97, Metabolic Activation: NONE, Method: STANDARD PLATE) was “active; positive”, the mutagenic call (Test System: AMES SALMONELLA TYPHIMURIUM, Strain/Indicator: TA97, Metabolic Activation: RAT, LIVER, S-9, AROCLOR 1254, Method: STANDARD PLATE) was “active; positive” and the mutagenic call (Test System: AMES SALMONELLA TYPHIMURIUM, Strain/Indicator: TA98, Metabolic Activation: NONE, Method: STANDARD PLATE) was “inactive; negative”. For the same compound, the mutagenic call (Test System: AMES SALMONELLA TYPHIMURIUM, Strain/Indicator: TA98, Metabolic Activation: RAT, LIVER, S-9, AROCLOR 1254, Method: STANDARD PLATE) was “active; positive”, the mutagenic call (Test System: AMES SALMONELLA TYPHIMURIUM, Strain/Indicator: TA100/NG-57, Metabolic Activation: CELL PRETREATMENT WITH GLUTATHIONE, Method: PREINCUBATION) was “active; positive” and the mutagenic call (Test System: AMES SALMONELLA TYPHIMURIUM, Strain/Indicator: TA100/NG-57, Metabolic Activation: NONE, Method: PREINCUBATION) was “inactive; negative”. For the same compound, the mutagenic call (Test System: AMES SALMONELLA TYPHIMURIUM, Strain/Indicator: TA100, Metabolic Activation: CELL PRETREATMENT WITH GLUTATHIONE, Method: PREINCUBATION) was “active; positive”, the mutagenic call (Test System: AMES SALMONELLA TYPHIMURIUM, Strain/Indicator: TA100, Metabolic Activation: NONE) was “active; positive” and the mutagenic call (Test System: AMES SALMONELLA TYPHIMURIUM, Strain/Indicator: TA100, Metabolic Activation: NONE, Method: PREINCUBATION) was “active; positive”. For the same compound, the mutagenic call (Test System: AMES SALMONELLA TYPHIMURIUM, Strain/Indicator: TA100, Metabolic Activation: NONE, Method: SUSPENSION/PLATE) was “active; positive”, the mutagenic call (Test System: AMES SALMONELLA TYPHIMURIUM, Strain/Indicator: TA100, Metabolic Activation: RAT, KIDNEY, S-9, AROCLOR 1254) was “active; positive” and the mutagenic call (Test System: AMES SALMONELLA TYPHIMURIUM, Strain/Indicator: TA100, Metabolic Activation: RAT, LIVER, HEPATOCYTES, Method: SUSPENSION/PLATE) was “active; positive”. For the same compound, the mutagenic call (Test System: AMES SALMONELLA TYPHIMURIUM, Strain/Indicator: TA100, Metabolic Activation: RAT, LIVER, S-9, AROCLOR 1254) was “active; positive”, the mutagenic call (Test System: AMES SALMONELLA TYPHIMURIUM, Strain/Indicator: TA100, Metabolic Activation: RAT, LIVER, S-9, AROCLOR 1254, Method: STANDARD PLATE) was “active; positive” and the mutagenic call (Test System: AMES SALMONELLA TYPHIMURIUM, Strain/Indicator: TA100, Metabolic Activation: RAT, LIVER, S-9, AROCLOR 1254 AND RAT, KIDNEY, S-9, AROCLOR 1254) was “active; positive”. For the same compound, the mutagenic call (Test System: AMES SALMONELLA TYPHIMURIUM, Strain/Indicator: TA100, Metabolic Activation: S-9 MIX, Method: STANDARD PLATE) was “active; positive”, the mutagenic call (Test System: AMES SALMONELLA TYPHIMURIUM, Strain/Indicator: TA102, Metabolic Activation: NONE, Method: STANDARD PLATE) was “inactive; negative” and the mutagenic call (Test System: AMES SALMONELLA TYPHIMURIUM, Strain/Indicator: TA104, Metabolic Activation: NONE, Method: STANDARD PLATE) was “inactive; negative”. The mutagenic call (Test System: AMES SALMONELLA TYPHIMURIUM, Strain/Indicator: TA104, Metabolic Activation: RAT, LIVER, S-9, AROCLOR 1254, Method: STANDARD PLATE) was “inactive; negative”, the mutagenic call (Test System: AMES SALMONELLA TYPHIMURIUM, Strain/Indicator: TA1530, Metabolic Activation: NONE, Method: SPOT) was “active; positive” and the mutagenic call (Test System: AMES SALMONELLA TYPHIMURIUM, Strain/Indicator: TA1535/NG-19, Metabolic Activation: CELL PRETREATMENT WITH GLUTATHIONE, Method: PREINCUBATION) was “active; positive”. The mutagenic call (Test System: AMES SALMONELLA TYPHIMURIUM, Strain/Indicator: TA1535/NG-19, Metabolic Activation: NONE, Method: PREINCUBATION) was “active; positive”, the mutagenic call (Test System: AMES SALMONELLA TYPHIMURIUM, Strain/Indicator: TA1535, Metabolic Activation: CELL PRETREATMENT WITH GLUTATHIONE, Method: PREINCUBATION) was “active; positive” and the mutagenic call (Test System: AMES SALMONELLA TYPHIMURIUM, Strain/Indicator: TA1535, Metabolic Activation: NONE, Method: PREINCUBATION) was “active; positive”. The mutagenic call (Test System: AMES SALMONELLA TYPHIMURIUM, Strain/Indicator: TA1535, Metabolic Activation: NONE, Method: STANDARD PLATE) was “active; positive”, the mutagenic call (Test System: AMES SALMONELLA TYPHIMURIUM, Strain/Indicator: TA1535, Metabolic Activation: RAT, KIDNEY, S-9, AROCLOR 1254) was “active; positive” and the mutagenic call (Test System: AMES SALMONELLA TYPHIMURIUM, Strain/Indicator: TA1535, Metabolic Activation: RAT, LIVER, S-9, AROCLOR 1254, Method: PREINCUBATION) was “active; positive”. For the same compound, the mutagenic call (Test System: AMES SALMONELLA TYPHIMURIUM, Strain/Indicator: TA1535, Metabolic Activation: RAT, LIVER, S-9, AROCLOR 1254, Method: STANDARD PLATE) was “active; positive”, the mutagenic call (Test System: AMES SALMONELLA TYPHIMURIUM, Strain/Indicator: TA1535, Metabolic Activation: RAT, LIVER, S-9, AROCLOR 1254 AND RAT, KIDNEY, S-9, AROCLOR 1254) was “active; positive” and the mutagenic call (Test System: AMES SALMONELLA TYPHIMURIUM, Strain/Indicator: TA1535, Metabolic Activation: RAT, LIVER, S-9, PHENOBARBITAL, Method: STANDARD PLATE) was “active; positive”. For the same compound, the mutagenic call (Test System: AMES SALMONELLA TYPHIMURIUM, Strain/Indicator: TA2638, Metabolic Activation: NONE, Method: STANDARD PLATE) was “inactive; negative”, the mutagenic call (Test System: AMES SALMONELLA TYPHIMURIUM, Strain/Indicator: YG7100, Metabolic Activation: NONE, Method: PREINCUBATION) was “active; positive” and the mutagenic call (Test System: AMES SALMONELLA TYPHIMURIUM, Strain/Indicator: YG7104, Metabolic Activation: NONE, Method: PREINCUBATION) was “active; positive”. The mutagenic call (Test System: AMES SALMONELLA TYPHIMURIUM, Strain/Indicator: YG7108, Metabolic Activation: NONE, Method: PREINCUBATION) was “active; positive”, the mutagenic call (Test System: AMES SALMONELLA TYPHIMURIUM, Strain/Indicator: YG7112, Metabolic Activation: NONE, Method: PREINCUBATION) was “active; positive” and the mutagenic call (Test System: AMES SALMONELLA TYPHIMURIUM, Strain/Indicator: YG7113, Metabolic Activation: NONE, Method: PREINCUBATION) was “active; positive”. The mutagenic call (Test System: AMES SALMONELLA TYPHIMURIUM, Strain/Indicator: YG7119, Metabolic Activation: NONE, Method: PREINCUBATION) was “active; positive”, the mutagenic call (Test System: CHINESE HAMSTER OVARY, Strain/Indicator: CHO-K1 (HPRT)/6-THIOGUANINE, Metabolic Activation: NONE, Method: SUSPENSION/PLATE) was “active; positive” and the mutagenic call (Test System: CHINESE HAMSTER OVARY, Strain/Indicator: CHO-K1-BH4 (HGPRT)/6-THIOGUANINE, Metabolic Activation: NONE) was “inactive; negative”. The mutagenic call (Test System: E. COLI, Strain/Indicator: K12(AB1157), Metabolic Activation: NONE, Method: SUSPENSION/PLATE) was “inactive; negative”, the mutagenic call (Test System: E. COLI, Strain/Indicator: K12(AB1157), Metabolic Activation: RAT, LIVER, S-9, PHENOBARBITAL AND BETA-NAPHTHOFLAVONE, Method: SUSPENSION/PLATE) was “inactive; negative” and the mutagenic call (Test System: E. COLI, Strain/Indicator: K12(AB1886) UVRA, Metabolic Activation: NONE, Method: SUSPENSION/PLATE) was “active; positive”. For the same compound, the mutagenic call (Test System: E. COLI, Strain/Indicator: K12(AB1886) UVRA, Metabolic Activation: RAT, LIVER, S-9, PHENOBARBITAL AND BETA-NAPHTHOFLAVONE, Method: SUSPENSION/PLATE) was “active; positive”, the mutagenic call (Test System: E. COLI, Strain/Indicator: K12(AB2480) RECA/UVRA, Metabolic Activation: NONE, Method: SUSPENSION/PLATE) was “inactive; negative” and the mutagenic call (Test System: E. COLI, Strain/Indicator: K12(AB2480) RECA/UVRA, Metabolic Activation: RAT, LIVER, S-9, PHENOBARBITAL AND BETA-NAPHTHOFLAVONE, Method: SUSPENSION/PLATE) was “inactive; negative”. For the same compound, the mutagenic call (Test System: E. COLI, Strain/Indicator: WP2 UVRA (PKM101), Metabolic Activation: NONE, Method: STANDARD PLATE) was “active; positive”, the mutagenic call (Test System: MOUSE LYMPHOMA, Strain/Indicator: L5178Y (TK+/TK-), Metabolic Activation: NONE, Method: SUSPENSION/PLATE) was “active; positive” and the mutagenic call (Test System: MOUSE LYMPHOMA, Strain/Indicator: L5178Y (TK+/TK-), Metabolic Activation: RAT, LIVER, S-9, AROCLOR 1254, Method: SUSPENSION/PLATE) was “active; positive”.
